Test results: patent US5242945A, “Tetronic and thiotetronic acid derivatives as phospholipase A2 inhibitors” (American Home Products Corporation, priority 1991, dated 1993)

Tests used:
[1] = tested on: purified PLA2, from the diamond back cotton mouth snake (A. piscivorus piscivorus); assay: in vivo PLA2 murine paw edema assay; parameters: species or system A. piscivorus piscivorus PLA2 in CD-1 mice
Procedure: The ability of the compounds of the invention to inhibit paw edema induced by the exogenous administration of PLA2 is measured in the in vivo PLA2 murine paw edema assay.
Non-fasted, male CD-1 mice (8 weeks old; 31-36 grams) are placed in plastic boxes in groups of six. The right hind paw volume is measured using mercury plethysmography (zero time). Compounds are dosed orally (0.5 mL of 0.5% Tween-80) 1 or 3 hours prior to PLA2 injection or intravenously (0.2 mL in 0.3% dimethylsulfoxide/saline) 3 minutes prior to PLA2 injection. A solution of purified PLA2, from the diamond back cotton mouth snake (A. piscivorus piscivorus) is prepared in saline at a concentration of 6 μg/mL. Fifty (50) μL (0.3 μg) of this PLA2 solution is injected subcutaneously into the right hind paw with a plastic 1 mL plastic syringe (27 gauge, 1" needle). Paw volume of the injected paw is measured again at 10 minutes, 30 minutes and 60 minutes after PLA2 injection. Animals are euthanized with CO2 at the completion of the study.
The paw edema is calculated by subtracting the zero time volume from the volume recorded at each time period. Mean paw edema for each treatment group is then calculated and expressed as (μL±S.E.). Drug effects are expressed as a percent change from control (vehicle) values. Statistical significance is determined by a one-way analysis of variance with LSD comparison to control (p<0.05). ED50 's are determined using […].

AA-induced ear edema = assay: arachidonic acid (AA)-induced murine ear edema assay; type: in vivo, mouse (Swiss Webster); conditions: for ED50: Mus musculus, 1 h, oral
TPA-induced ear edema = assay: 12-o-tetradecanoylphorbol acetate (TPA)-induced murine ear edema assay; type: in vivo, mouse (Swiss Webster); conditions: oral, TPA-induced
Procedure: The ability of the compounds of the invention to inhibit inflammatory responses is examined in the in vivo arachidonic acid (AA)/12-o-tetradecanoylphorbol acetate (TPA)-induced murine ear edema assay.
Swiss Webster female mice (Buckshire), approximately 8 weeks old are placed into plastic boxes in groups of six. Eight groups of mice receive AA topically on the right ear, and another 8 groups receive TPA topically on the right ear. AA and TPA are dissolved in acetone at concentrations of 100 mg/ml and 100 μg/ml respectively. The phlogistics are applied to the right ear by the means of an automatic pipet. Volumes of 10 μl are applied to the inner and outer surfaces of the ear. Each mouse receives either 2 mg/ear AA or 2 μg/ear TPA. The left ear (control) receives acetone delivered in the same manner. Topical and subcutaneous dosing regimens are as follows 1) drugs are given 30 minutes prior to AA treatment and 2) drugs are given 30 minutes after treatment with TPA.
Measurements are taken with Oditest calipers, 0-10 mm with 0.01 graduations. The right and left ears are measured after 1 hr AA-induced inflammation and 4 hours after TPA-induced inflammation.
The difference between right and left ear thickness is calculated and the significance is determined by a one way analysis of variance with Dunnett's comparisons to control (P=0.05). Drug effects are expressed as a percent change from control values: [formula]

human platelet PLA2 = molecular target: T1, human platelet PLA2 (Homo sapiens, UniProt P14555); assay: in vitro isolated phospholipase A2 assay, human platelet PLA2; type: biochemical; conditions: at 10 μM; + values given without explanation; read-out: % Inhibition HP (human platelet)
T1 construct: platelet acid extract PLA2; from tissue; host or cells: human platelets, semipurified acid extract
T1 sequence (P14555 21-144): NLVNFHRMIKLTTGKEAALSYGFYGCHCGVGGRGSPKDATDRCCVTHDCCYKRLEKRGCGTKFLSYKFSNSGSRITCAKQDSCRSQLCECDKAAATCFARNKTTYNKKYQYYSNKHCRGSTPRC
In short: (§1)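 PLA2 from semipurified human platelet acid extract or purified human synovial fluid, preincubated 30 min at room temperature with compound. ³H-arachidonate-labelled E. coli substrate then added in Tris-HCl pH 7.5, with enzyme giving about 12% hydrolysis. Reaction ran 10 min at 37° C; released arachidonic acid recovered on NH2 columns and measured by β-counting.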

[2] = molecular target: T2, human synovial fluid PLA2 (Homo sapiens, UniProt P14555); assay: in vitro isolated phospholipase A2 assay, human synovial fluid PLA2; type: biochemical; conditions: for IC50: Table IV, read-out: IC50 HSF (human synovial fluid); for inhibition at 10 µM: + values given without explanation, read-out: % Inhibition HSF (human synovial fluid)
T2 construct: Purified human synovial fluid; from tissue; host or cells: human synovial fluid
T2 sequence (P14555 21-144): T1 sequence (P14555 21-144)
In short: as §1

carrageenan paw edema = assay: rat carrageenan paw edema assay; type: in vivo, rat (Sprague-Dawley); conditions: 50 mg/kg peroral
Procedure: The compounds of the invention are further tested in the rat carrageenan paw edema assay to determine their ability to inhibit the acute inflammatory response.
140-180 g Male Sprague-Dawley rats, in groups of 6 animals are injected subcutaneously in the right paw with 0.1 mL of 1% carrageenan at zero time. Mercury plethysmographic readings (mL) of the paw are made at zero time and 3 hours later. Test compounds are suspended or dissolved in 0.5% methylcellulose and given perorally 1 hour prior to carrageenan administration.
The increase in paw volume (edema in mL) produced by the carrageenan is measured. Paw edema is calculated (3 hour volume minus zero time volume), and percent inhibition of edema is determined. Unpaired Student's t-test is used to determine statistical significance.

[3] = tested on: lipoxygenase (LTB4 or 5HETE synthesis); assay: inhibition of LTB4 and 5-HETE synthesis by rat glycogen-elicited polymorphonuclear leukocytes; type: cell-based, rat (female Wistar); conditions: Leukocyte; at 10 μM; rat PMN; + with * denotes potentiation; read-out: % Inhibition LTB4
Text: This is especially true with respect to 5,12-diHETE, which is also denoted as LTB4 [see Ford-Hitchinson, J. Roy. Soc. Med., 74, 831 (1981)]. Compounds which inhibit the PLA2 -mediated release of arachidonic acid thereby effectively prevent the oxidation of arachidonic acid to the various leukotriene products via the lipoxygenase cascade. Accordingly, the specificity of action of PLA2 inhibitors can be determined by the activity of test compounds in this assay, which measures the ability of compounds to inhibit the synthesis of LTB4 and 5-HETE by rat glycogen-elicited polymorphonuclear leukocytes (PMN) in the presence of exogenous substrate.
(§2) Rat polymorphonuclear leukocytes (PMNs) are obtained from female Wistar rats (150-200 g) which receive an injection of 6% glycogen (10 ml i.p.). Rats are sacrificed 18-24 hours post injection by CO2 asphyxiation and the elicited cells are harvested by peritoneal lavage using physiological saline (0.9% NaCl). The exudate is centrifuged at 400 xg for 10 minutes. The supernatant fluid is discarded and the cell pellet is resuspended to a concentration of 2.0×10^7 cells/mL in HBSS containing Ca^++ and Mg^++ and 10 μM L-cysteine.
(§3) To 1 mL aliquots of cell suspension, test drugs or vehicle are added, then preincubated at 37° C. for 10 minutes. A23187 (1 μM), [^3 H]-AA (3.0 μCi/mL) and unlabeled AA (1 μM) are then added and the samples are further incubated for 10 minutes. The reaction is terminated by centrifugation and pelleting cells. Supernatants are then analyzed by HPLC analysis on a 15 cm×4.6 mm ID supelcosil LC-18 (Supelco)(3M) column, using a two solvent system at a flow rate of 1.4 mL total flow as follows:
Injections: 140 μL of each supernatant is injected directly onto column and ^3 H arachidonic acid metabolites are monitored using an on-line radioactivity detector (Ramona, IN/US, Fairfield, N.J.).
Co-chromatography with standard [^3 H] leukotriene B4 (LTB4) in medium of stimulated PMN exposed to drug is compared to that found in medium of stimulated cells exposed to no drug, generating percent inhibition.
Results are expressed as percent inhibition at a given compound dose or as an IC50 value.

[4] = tested on: cyclooxygenase (PGE2 or TxB2 synthesis); assay: inhibition of synthesis of cyclooxygenase products PGE2 and TxB2 by rat polymorphonuclear leukocytes; type: cell-based, rat (female Wistar); conditions: Leukocyte; at 10 μM; rat PMN; + with * denotes potentiation; read-out: % Inhibition TxB2
Procedure: as §2, §3
In this assay, the procedure of Example 58 is carried out as described. However, in order to determine cyclooxygenase activity, the samples are co-chromatographed with authentic reference [^3 H]-TxB2 or [^3 H]-PGE2.
The results are calculated as in Example 58 and presented below: […]

[5] = tested on: lipoxygenase and/or cyclooxygenase pathways of arachidonic acid metabolism; assay: in vivo murine zymosan peritonitis assay; parameters: species or system mouse (CD-1)
Procedure: The compounds of the invention are evaluated for their ability to inhibit the lipoxygenase and/or cyclooxygenase pathways of arachidonic acid metabolism in the in vivo murine zymosan peritonitis assay.
Male CD-1 mice (8 weeks old) are placed in plastic boxes in groups of six. Animals are injected with 1 mL i.p. of either 1% zymosan in pyrogen free 0.9% saline or saline (unstimulated control). Compounds are dosed orally 1 hour prior to zymosan injection. Twenty minutes after zymosan injection, the mice are asphyxiated by CO2 inhalation and the peritoneal cavity is lavaged with 2 mL ice cold Hanks Balanced Salt Solution (HBSS) without CaCl2, MgSO4. 7H2 O and MgCl2.6H2 O. Peritoneal lavage fluid from each mouse is removed by syringe and placed in 5 mL plastic test tubes put on ice and volume is noted. Preparation of samples for evaluation by ELISA is as follows: Samples are centrifuged at 800 xg for 15 minutes; 1 mL of the supernatant is added to 8 mL ice cold methanol and kept at -70° C. overnight to precipitate protein; and samples are then centrifuged at 800 xg for 15 minutes, followed by a drying procedure in a Savant speed vac concentrator. The samples are reconstituted with 1 mL ice cold ELISA buffer and stored at -70° C. until assayed. The assay for eicosanoids (LTC4 and 6-keto-PGF1α) is performed according to conventional ELISA procedures.
Compounds to be tested orally are suspended in 0.5% Tween 80. Compounds to be tested intraperitoneally are suspended in 0.5% methylcellulose in 0.9% saline.
The total metabolite level in lavage fluid/mouse is calculated and the significance is determined by a one-way analysis of variance with LSD comparisons to control (p≤0.05). Drug effects are expressed as a percent change from control values.

Row | Compound | ED50 (AA-induced ear edema) [mg/kg] | inhibition at 10 µM (human platelet PLA2) [%] | IC50 [2] [nM] | inhibition at 10 µM [2] [%] | % Inhibition (carrageenan paw edema) [%] | inhibition at 10 µM [3] [%] | inhibition at 10 µM [4] [%] | % Change in Edema 10 min ([1]; 10 mg/kg i.v.) [%] | % Change in Edema 30 min ([1]; 10 mg/kg i.v.) | % Change in Edema 60 min ([1]; 10 mg/kg i.v.) | % Change in Edema 10 min ([1]; 100 mg/kg p.o.) [%] | % Change in Edema 30 min ([1]; 100 mg/kg p.o.) [%] | % Change in Edema 60 min ([1]; 100 mg/kg p.o.) [%] | further results
1 | NC1=NN(c2cccc(C(F)(F)F)c2)CC1 [BW 755c, reference compound] | 65 |  |  |  |  |  |  |  |  |  |  |  |  | ED50 at +10 min. ([1]; p.o., at +10 min): 50 mg/kg; ED50 (TPA-induced ear edema; Mus musculus, 4 h, read-out: Oral ED50 (TPA)): 88 mg/kg
2 | COc1ccc(/C=C/C(=O)C2=C(O)COC2=O)cc1 [Example 6, (E)-4-Hydroxy-3-(3-(4-methoxyphenyl)-1-oxo-2-propenyl)-2 (5H)-furanone] |  | 0 | 8700 | 59 | 31 |  |  |  |  |  |  |  |  | 
3 | O=C(/C=C/c1ccc(Cl)cc1)C1=C(O)COC1=O [Example 7, (E)-4-Hydroxy-3-(3-(4-chlorophenyl)-1-oxo-2-propenyl)-2(5H)-furanone] |  | 0 | 1800 | 98 | 47 | 13 | 18 | -19 | +39% | +15% | -24 | -4 | -9 | 
4 | O=C(/C=C/c1cccc([N+](=O)[O-])c1)C1=C(O)COC1=O [Example 12, (E)-4-Hydroxy-3-(3-(3-nitrophenyl)-1-oxo-2-propenyl)-2 (5H)-furanone] |  | 11 | 2000 | 82 | 30 | 5 | 9 | -11 | -19% | +24% | -27 | -33 | -2 | 
5 | O=C1CCN(c2ccccc2)N1 [Phenidone] | 85 |  |  |  |  |  |  |  |  |  |  |  |  | 
6 | COc1ccc2c(c1)c(CC(=O)O)c(C)n2C(=O)c1ccc(Cl)cc1 [indomethacin] |  |  |  |  |  |  |  |  |  |  |  |  |  | % Inhibition LTC4 ([5]; 10 mg/kg p.o.): +25%; ED50 LTC4 ([5]; p.o.): Not Active; Oral ED50 (AA) (AA-induced ear edema): inactive at 10; Oral ED50 (TPA) (TPA-induced ear edema): inactive at 10
